{"source": "paper PMC10743905", "about": "“Design, Synthesis, and In Vitro and In Vivo Bioactivity Studies of Hydrazide–Hydrazones of 2,4-Dihydroxybenzoic Acid” (International Journal of Molecular Sciences, 2023)", "key": {"[1]": {"system": "Proteus mirabilis ATCC 12453", "test": "Broth microdilution MIC/MBC", "type": "cell-based", "outline": "(§1)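 Strains were subcultured on nutrient or Sabouraud agar, suspended to 0.5 McFarland in saline, then added to wells holding two-fold compound dilutions. Final concentrations ranged 1000 to 0.488 µg/ml in Mueller-Hinton broth or RPMI 1640 with MOPS.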"}, "[2]": {"system": "Staphylococcus epidermidis ATCC 12228", "test": "Broth microdilution MIC/MBC", "type": "cell-based", "outline": "as §1"}, "[3]": {"system": "Staphylococcus aureus ATCC 29213", "test": "Broth microdilution MIC/MBC", "type": "cell-based", "outline": "as §1"}, "[4]": {"system": "Staphylococcus aureus ATCC 43300", "test": "Broth microdilution MIC/MBC", "type": "cell-based", "settings": "Staphylococcus aureus ATCC 43300 (MRSA)", "outline": "as §1"}, "[5]": {"system": "Salmonella typhimurium ATCC 14028", "test": "Broth microdilution MIC/MBC", "type": "cell-based", "outline": "as §1"}, "[6]": {"system": "Micrococcus luteus ATCC 10240", "test": "Broth microdilution MIC/MBC", "type": "cell-based", "outline": "as §1"}, "[7]": {"system": "Pseudomonas aeruginosa ATCC 9027", "test": "Broth microdilution MIC/MBC", "type": "cell-based", "settings": "ATCC9027", "outline": "as §1"}, "[8]": {"system": "reference Gram-positive bacteria", "test": "Broth microdilution, summary over the Gram-positive panel", "type": "cell-based", "settings": "read-out: MIC", "description": "(§2) In vitro antimicrobial activity assays - Methodology\n(§3) The examined compounds 1 - 24 were screened in vitro for antibacterial and antifungal activities using the broth microdilution method according to procedure reported earlier by our research group and European Committee on Antimicrobial Susceptibility Testing (EUCAST) and Clinical and Laboratory Standards Institute (CLSI) guidelines against a panel of reference and clinical or saprophytic strains of microorganisms, in-cluding Gram-positive bacteria, Staphylococcus aureus ATCC 43300 (Methicillin Resistant S. aureus – MRSA), Staphylococcus aureus ATCC 29213 (Methicillin Susceptible S. aureus – MSSA), Staphylococcus epidermidis ATCC 12228, Enterococcus faecalis ATCC 29212, Micro-coccus luteus ATCC 10240, Bacillus subtilis ATCC 6633 and Bacillus cereus ATCC 10876), Gram-negative bacteria (Bordetella bronchiseptica ATCC 4617, Escherichia coli ATCC 25922, Klebsiella pneumoniae ATCC 13883, Proteus mirabilis ATCC 12453, Salmonella typhimurium ATCC 14028 and Pseudomonas aeruginosa ATCC 9027) and fungi belonging to yeasts (Can-dida albicans ATCC 10231, Candida albicans ATCC 2091, Candida parapsilosis ATCC 22019, Candida glabrata ATCC 90030 and Candida krusei ATCC 14243). The microorganisms be-longing to ATCC came from American Type Culture Collection, routinely used for the evaluation of antimicrobials. […]\nSamples containing examined compounds were dissolved in dimethyl sulfoxide (DMSO). […]\n(§4) Subsequently, the MIC (Minimal Inhibitory Concentration) of the compounds was ex-amined by the microdilution broth method, using their two-fold dilutions in Mueller- […]\n(§5) Hinton broth or (for bacteria) and RPMI 1640 broth with MOPS (for fungi) prepared in 96-well polystyrene plates. Final concentrations of the compounds ranged from 1000 to 0.488 µg/ml. Microbial suspensions were prepared in 0.85% NaCl with an optical density of 0.5 McFarland standard. Next each bacterial or fungal suspension was added per each well containing broth and various concentrations of the examined compounds. After incuba-"}, "[9]": {"system": "Bacillus subtilis ATCC 6633", "test": "Broth microdilution MIC/MBC", "type": "cell-based", "outline": "as §1"}, "[10]": {"system": "Candida albicans ATCC 10231", "test": "Broth microdilution MIC/MFC", "type": "cell-based", "outline": "as §1"}, "[11]": {"system": "Candida glabrata ATCC 90030", "test": "Broth microdilution MIC/MFC", "type": "cell-based", "settings": "Nakaseomyces glabratus, ATCC90030, read-out: MIC", "outline": "as §1"}, "[12]": {"system": "Candida albicans ATCC 2091", "test": "Broth microdilution MIC/MFC", "type": "cell-based", "outline": "as §1"}, "[13]": {"system": "Candida krusei ATCC 14243", "test": "Broth microdilution MIC/MFC", "type": "cell-based", "settings": "Pichia kudriavzevii, ATCC14243, read-out: MIC", "outline": "as §1"}, "[14]": {"system": "Candida parapsilosis ATCC 22019", "test": "Broth microdilution MIC/MFC", "type": "cell-based", "settings": "Lodderomyces parapsilosis, ATCC22019, read-out: MIC", "outline": "as §1"}, "Gram-negative bacteria": {"system": "Gram-negative bacteria", "test": "Broth microdilution, summary over the Gram-negative panel", "type": "cell-based", "description": "as §2\nas §3, with “antimicrobials. All the used microbial cultures were first subcultured on nu-trient agar or Sabouraud agar at 35°C for 18-24 h or 30°C for 24-48 h for bacteria and fungi,” for “antimicrobials.”\nThe surface of Mueller-Hinton agar (for bacteria) and RPMI 1640 with MOPS (for fungi) were inoculated with the suspensions of bacterial or fungal species. Microbial suspensions were prepared in sterile saline with an optical density of McFarland standard scale 0.5.\nSamples containing examined compounds were dissolved in dimethyl sulfoxide (DMSO).\nFurthermore, bacterial and fungal suspensions were put onto Petri dishes with solid me-dia containing 2 mg/mL of the tested compounds followed incubation at 37°C for 24h and 30°C for 48h for bacteria and fungi, respectively. The inhibition of microbial growth was judged by comparison with a control culture prepared without any sample tested. Ciprof-loxacin, vancomycin, nitrofurantoin, cefuroxime, ampicillin or nystatin (Sigma) were used as a reference antibacterial or antifungal compounds, respectively.\nas §4, §5"}, "[15]": {"system": "Escherichia coli ATCC 25922", "test": "Broth microdilution MIC/MBC", "type": "cell-based", "outline": "as §1"}, "[16]": {"system": "Bacillus cereus ATCC 10876", "test": "Broth microdilution MIC/MBC", "type": "cell-based", "outline": "as §1"}, "[17]": {"system": "Klebsiella pneumoniae ATCC 13883", "test": "Broth microdilution MIC/MBC", "type": "cell-based", "outline": "as §1"}, "[18]": {"system": "Enterococcus faecalis ATCC 29212", "test": "Broth microdilution MIC/MBC", "type": "cell-based", "outline": "as §1"}, "[19]": {"system": "Bordetella bronchiseptica ATCC 4617", "test": "Broth microdilution MIC/MBC", "type": "cell-based", "outline": "as §1"}, "HepG2 cells": {"system": "HepG2 cells", "set-up": "method as in doi:10.1016/j.cclet.2016.10.020", "settings": "standard; cited from earlier work"}}}
{"smiles": "O=C(N/N=C/c1cc(Br)c(O)c(Br)c1)c1ccc(O)cc1O", "note": "[Compound 17, N-[(3,5-dibromo-4-hydroxyphenyl)methylidene]-2,4-dihydroxybenzohydrazide]", "values": [{"measurement": "melting point", "result": 260, "unit": "°C"}, {"measurement": "MBC/MIC", "setting": "[1]", "result": "> 1"}, {"measurement": "MBC", "setting": "[1]; ATCC12453", "result": "> 1000", "unit": "µg/mL"}, {"measurement": "MIC", "setting": "[1]; ATCC12453", "result": 1000, "unit": "µg/mL"}, {"measurement": "MBC/MIC", "setting": "[2]", "result": "> 8"}, {"measurement": "MBC", "setting": "[2]; ATCC12228", "result": "> 1000", "unit": "µg/mL"}, {"measurement": "MIC", "setting": "[2]; ATCC12228, read-out: MIC", "result": 250, "unit": "µg/mL"}, {"measurement": "MBC/MIC", "setting": "[3]", "result": 32}, {"measurement": "MBC", "setting": "[3]; ATCC29213", "result": "> 1000", "unit": "µg/mL"}, {"measurement": "MIC", "setting": "[3]; ATCC29213", "result": 31.2, "unit": "µg/mL"}, {"measurement": "MBC", "setting": "[4]", "result": "> 1000", "unit": "µg/mL"}, {"measurement": "MBC/MIC", "setting": "[4]", "result": "> 16"}, {"measurement": "MIC", "setting": "[4]", "result": 62.5, "unit": "µg/mL"}, {"measurement": "MBC/MIC", "setting": "[5]", "result": "> 1"}, {"measurement": "MBC", "setting": "[5]; Salmonella enterica", "result": "> 1000", "unit": "µg/mL"}, {"measurement": "MIC", "setting": "[5]; Salmonella enterica", "result": 1000, "unit": "µg/mL"}, {"measurement": "MBC/MIC", "setting": "[6]", "result": "> 8"}, {"measurement": "MBC", "setting": "[6]; ATCC10240", "result": "> 1000", "unit": "µg/mL"}, {"measurement": "MIC", "setting": "[6]; ATCC10240, read-out: MIC", "result": 125, "unit": "µg/mL"}, {"measurement": "MIC", "setting": "[7]", "result": "> 1000", "unit": "µg/mL"}, {"measurement": "MIC", "setting": "[8]", "result": "15.6 to 1000", "unit": "µg/mL"}, {"measurement": "MBC/MIC", "setting": "[9]", "result": "> 8"}, {"measurement": "MBC", "setting": "[9]; ATCC6633", "result": "> 1000", "unit": "µg/mL"}, {"measurement": "MIC", "setting": "[9]; ATCC6633, read-out: MIC", "result": 125, "unit": "µg/mL"}, {"measurement": "MFC/MIC", "setting": "[10]", "result": "> 1"}, {"measurement": "MFC", "setting": "[10]; ATCC10231, read-out: MFC", "result": "> 1000", "unit": "µg/mL"}, {"measurement": "MIC", "setting": "[10]; ATCC10231, read-out: MIC", "result": 1000, "unit": "µg/mL"}, {"measurement": "MIC", "setting": "[11]", "result": "> 1000", "unit": "µg/mL"}, {"measurement": "MFC/MIC", "setting": "[12]", "result": "> 1"}, {"measurement": "MFC", "setting": "[12]; ATCC2091, read-out: MFC", "result": "> 1000", "unit": "µg/mL"}, {"measurement": "MIC", "setting": "[12]; ATCC2091, read-out: MIC", "result": 1000, "unit": "µg/mL"}, {"measurement": "MIC", "setting": "[13]", "result": "> 1000", "unit": "µg/mL"}, {"measurement": "MIC", "setting": "[14]", "result": "> 1000", "unit": "µg/mL"}, {"measurement": "MBC", "setting": "Gram-negative bacteria", "result": "> 1000", "unit": "µg/mL"}, {"measurement": "MIC", "setting": "Gram-negative bacteria", "result": "500 to 1000", "unit": "µg/mL"}, {"measurement": "MBC/MIC", "setting": "[15]", "result": "> 1"}, {"measurement": "MBC", "setting": "[15]; ATCC25922", "result": "> 1000", "unit": "µg/mL"}, {"measurement": "MIC", "setting": "[15]; ATCC25922", "result": 1000, "unit": "µg/mL"}, {"measurement": "MBC/MIC", "setting": "[16]", "result": "> 4"}, {"measurement": "MBC", "setting": "[16]; ATCC10876", "result": "> 1000", "unit": "µg/mL"}, {"measurement": "MIC", "setting": "[16]; ATCC10876, read-out: MIC", "result": 250, "unit": "µg/mL"}, {"measurement": "MBC/MIC", "setting": "[17]", "result": "> 1"}, {"measurement": "MBC", "setting": "[17]; ATCC13883", "result": "> 1000", "unit": "µg/mL"}, {"measurement": "MIC", "setting": "[17]; ATCC13883", "result": 1000, "unit": "µg/mL"}, {"measurement": "MBC/MIC", "setting": "[18]", "result": "> 1"}, {"measurement": "MBC", "setting": "[18]; ATCC29212, read-out: MBC", "result": "> 1000", "unit": "µg/mL"}, {"measurement": "MIC", "setting": "[18]; ATCC29212, read-out: MIC", "result": 500, "unit": "µg/mL"}, {"measurement": "MBC/MIC", "setting": "[19]", "result": "> 1"}, {"measurement": "MBC", "setting": "[19]; ATCC4617", "result": "> 1000", "unit": "µg/mL"}, {"measurement": "MIC", "setting": "[19]; ATCC4617", "result": 1000, "unit": "µg/mL"}]}
{"smiles": "COc1cccc2c1C(=O)c1c(O)c3c(c(O)c1C2=O)C[C@@](O)(C(=O)CO)C[C@@H]3O[C@H]1C[C@H](N)[C@H](O)[C@H](C)O1", "note": "[doxorubicin]", "values": [{"measurement": "IC50", "setting": "HepG2 cells", "result": 6, "unit": "µM"}]}
